Assay results as given in US9840494B2, “Quinazoline derivative” (Tianjin Hemay Oncology Pharmaceutical Co., Ltd., priority 2013, dated 2017).
Structures can show the parent of a compound that is named as a salt.

Legend:
[1] = FDA application records; cited from earlier work
[2] = Li D et al., Oncogene 2008; cited from earlier work
[3] = MTD assay, single administration to mice; format: in vivo; settings: ICR male mice, tail intravenous administration, 14 days
From the text: MTD Assay for a Single […] to Mice
1. Experimental Animals: ICR male mice, weighing 19-22 g, were purchased from Beijing Vital River Laboratory Animal Technology Co., Ltd., Animal License No. SCXK (Beijing) 2007-0001
2. Experimental Scheme: 21 mice were divided into nine groups: groups I, IV and VI referred to one mouse per group, groups II, V and IIX referred to four mice per group, and group III, VI and IX referred to two mice per group. Compound 4, compound 2 and compound 12 were dissolved in water for injection. Groups I-III were subjected to tail intravenous administration of compound 4 (N-[4-(3-chloro-4-fluorophenylamino)-7-(2-methoxyethoxy)quinazolin-6yl]-2-[piperidin-4-ylidene]acetamide dihydrochloride) at doses of 100 mg/kg, 150 mg/kg, and 200 mg/kg, respectively. The animal response and the weight change were observed after administration, and these animals were sacrificed after 14 days for anatomical observation. Groups IV-VI were subjected to tail intravenous administration of compound 2 (N-[4-(3-chloro-4-fluorophenylamino)-7-(2-methoxyethoxy)quinazolin-6yl]-2-[1-(2-methoxyethyl)piperidin-4-ylidene]acetamide dihydrochloride) at doses of 100 mg/kg, 150 mg/kg, and 200 mg/kg, respectively. The animal response and the weight change were observed after administration, and these animals were sacrificed after 14 days for anatomical observation. Groups VII-IX were subjected to tail intravenous administration of compound 12 (N-[4-(3-ethynylphenylamino-7-(2-ethoxy)quinazolin-6yl]-2-[1-methylpiperidin-4-ylidene]acetamide dihydrochloride) at doses of 100 mg/kg, 150 mg/kg, and 200 mg/kg, respectively. The animal response and the weight change were observed after administration, and these animals were sacrificed after 14 days for anatomical observation.

[4] = Preliminary pharmacokinetic studies; format: in vivo

Structure (SMILES)	bioavailability [1] [%]	MTD [2] [mg/kg]	Mortality ([3]; 100 mg/kg, 1 animal) [%]	Number of Deaths ([3]; 100 mg/kg, 1 animal)	Mortality ([3]; 150 mg/kg, 4 animals) [%]	Number of Deaths ([3]; 150 mg/kg, 4 animals)	Mortality ([3]; 200 mg/kg, 2 animals) [%]	Number of Deaths ([3]; 200 mg/kg, 2 animals)	distribution (gathering in the gastrointestinal tract) [4]	oral bioavailability [4]
CN(C)C/C=C/C(=O)Nc1cc2c(Nc3ccc(F)c(Cl)c3)ncnc2cc1O[C@H]1CCOC1 [Afatinib]	11.175	30	–	–	–	–	–	–	–	–
COCCOc1cc2ncnc(Nc3ccc(F)c(Cl)c3)c2cc1NC(=O)C=C1CCNCC1 [Compound 4, N-[4-(3-chloro-4-fluorophenylamino)-7-(2-methoxyethoxy)quinazolin-6yl]-2-[piperidin-4-ylidene]acetamide dihydrochloride]	–	–	0	0	0	0	50	1	gathered in the gastrointestinal tract	very low
C#Cc1cccc(Nc2ncnc3cc(OCC)c(NC(=O)C=C4CCN(C)CC4)cc23)c1 [Compound 12, N-[4-(3-ethynylphenylamino-7-(2-ethoxy)quinazolin-6-yl]-2-[1-methylpiperidin-4-ylidene]acetamidedihydrochloride]	–	–	0	0	50	2	100	2	gathered in the gastrointestinal tract	very low
